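In this assay, cells in 96-well plates receive the compound at five concentrations for 48 hours. Endpoints are linearly interpolated between the surrounding concentrations. TGI marks complete inhibition of growth.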
How the values were obtained:
Assay in all cases: DTP human tumour cell line panel, 48 h
A549 NSCLC = tested on: A549 NSCLC
ACHN renal = tested on: ACHN renal
CAKI-1 renal = tested on: CAKI-1 renal
HCT-15 colon = tested on: HCT-15 colon
HOP-62 NSCLC = tested on: HOP-62 NSCLC
HOP-92 NSCLC = tested on: HOP-92 NSCLC
HT29 colon = tested on: HT29 colon
MDA-MB-231 breast = tested on: MDA-MB-231 breast
NCI-H23 lung = tested on: NCI-H23 lung
NCI-H522 lung = tested on: NCI-H522 lung
PC-3 prostate = tested on: PC-3 prostate
RPMI-8226 leukemia = tested on: RPMI-8226 leukemia
SF-539 CNS = tested on: SF-539 CNS
SK-MEL-5 melanoma = tested on: SK-MEL-5 melanoma
SN12C renal = tested on: SN12C renal
SNB-75 CNS = tested on: SNB-75 CNS
SR leukemia = tested on: SR leukemia
UACC-62 melanoma = tested on: UACC-62 melanoma
MOLT-4 leukemia = tested on: MOLT-4 leukemia

Measured: TGI

O=c1c2nc3ccccc3c(=O)n2ncn1-c1ccccc1Cl
not listed: MOLT-4 leukemia
> 100 µM: all other assays above

CC[C@]1(Cc2ccc(OC)c(OC)c2)C=[N+]([O-])O[C@H](OC2CCCC2(c2ccccc2)c2ccccc2)[C@@H]1OC(C)=O (stereo partly specified)
> 100 µM: SR leukemia
4.55 µM: HT29 colon
11.9 µM: SK-MEL-5 melanoma
> 39.3 µM: SN12C renal
18.8 µM: A549 NSCLC
9.77 µM: NCI-H522 lung
> 41.3 µM: MDA-MB-231 breast
15.8 µM: HCT-15 colon
10.2 µM: ACHN renal
19.9 µM: NCI-H23 lung
29.4 µM: HOP-62 NSCLC
54.7 µM: HOP-92 NSCLC
9.62 µM: SNB-75 CNS
12.7 µM: UACC-62 melanoma
18.4 µM: PC-3 prostate
> 23.8 µM: MOLT-4 leukemia

COc1cc(-c2cc(-c3ccccc3)nc(-c3c(OC)ccc4c(C)cc(=O)oc34)c2)cc(OC)c1OC
not listed: RPMI-8226 leukemia
> 100 µM: all other assays above

N#CC(=C1CCN(CCCC(=O)c2ccc(F)cc2)CC1)c1ccccc1
95.2 µM: NCI-H522 lung
not listed: HOP-62 NSCLC
> 100 µM: all other assays above

CCOC(=O)Cn1c(=O)c2nc(SC)sc2n(CC)c1=S
52.4 µM: SNB-75 CNS
not listed: CAKI-1 renal | UACC-62 melanoma
> 100 µM: all other assays above

CC(C)C1=CC23CCC4C(C)(C(=O)O)CCCC4(C)C2CC1C1C(=O)N(c2ccccc2N2C(=O)C4C5CC6C7(C)CCCC(C)(C(=O)O)C7CCC6(C=C5C(C)C)C4C2=O)C(=O)C13 (stereo unspecified)
23 µM: NCI-H522 lung
17.5 µM: SK-MEL-5 melanoma
32.3 µM: MDA-MB-231 breast
> 100 µM: RPMI-8226 leukemia
17.3 µM: SR leukemia
10.6 µM: HT29 colon
38.7 µM: A549 NSCLC
12.5 µM: SF-539 CNS
32.5 µM: HOP-92 NSCLC
24.8 µM: SN12C renal
11.6 µM: NCI-H23 lung
14.2 µM: MOLT-4 leukemia
21.8 µM: ACHN renal
18.9 µM: HOP-62 NSCLC
29.8 µM: HCT-15 colon
14 µM: PC-3 prostate

CC(C)OCC1CC(CC(=O)Nc2nncs2)C(=O)O1 (stereo unspecified)
not listed: NCI-H522 lung
> 100 µM: all other assays above

COc1ccc(CC(=O)N2CCC3(C)CC(=O)CC=C23)cc1OC (stereo unspecified)
not listed: SNB-75 CNS
> 100 µM: all other assays above

Cc1ccc(N(C(=O)Nc2ccccc2)C2=NCC(C)S2)cc1C (stereo unspecified)
> 100 µM: A549 NSCLC | ACHN renal | HOP-62 NSCLC | PC-3 prostate
41.9 µM: HT29 colon
30.7 µM: SK-MEL-5 melanoma
32 µM: SN12C renal
49 µM: RPMI-8226 leukemia
45 µM: MDA-MB-231 breast
42.5 µM: NCI-H23 lung
56.4 µM: SNB-75 CNS
86 µM: SR leukemia
> 10 µM: CAKI-1 renal | MOLT-4 leukemia
43.3 µM: HOP-92 NSCLC
44.5 µM: HCT-15 colon
48.5 µM: SF-539 CNS

CN1CCN(c2ncc3c(n2)sc2c(=O)n(-c4ccccc4)cnc23)CC1
not listed: SF-539 CNS
> 100 µM: all other assays above

COc1cc2c(cc1OC)C(=O)/C(=C/c1ccc(Cl)cc1)CC2
not listed: NCI-H522 lung | SNB-75 CNS
> 10 µM: all other assays above

COc1ccc(-n2c(=O)[nH]n(C(C)=O)c2=O)cc1
not listed: HOP-62 NSCLC
> 100 µM: all other assays above

Cc1cn(C2CC(O)C(COC(=O)NCCC(F)(F)C(F)(F)C(F)(F)C(F)(F)F)O2)c(=O)[nH]c1=O (stereo unspecified)
not listed: HCT-15 colon | RPMI-8226 leukemia
> 100 µM: all other assays above
